# From paper PMC3929365, “Benzimidazoisoquinolines: A New Class of Rapidly Metabolized Aryl Hydrocarbon Receptor (AhR) Ligands that Induce AhR-Dependent Tregs and Prevent Murine Graft-Versus-Host Disease” (PLoS ONE, 2014)
# Several values for one entry are separate records, joined by “and”; a condition that tells them apart may be missing. Equal values may be shown once.
# How the values were obtained:
# AhR [1] = assay: AhR-regulated (XRE) luciferase reporter gene assay in Hepa-1 cells; format: cell-based, mouse; settings: 10 nM, 12 h, Hepa1 cells, XRE-luciferase reporter
# Description: Figure 1 10-Cl-BBQ is a potent AhR ligand. A) Structure of 10-Cl-BBQ. […] C) Hepa-1 cells expressing endogenous AhR were transfected with an AhR-regulated luciferase reporter gene (xenobiotic responsive element (XRE)-MMTVpromoter-Luc) and the reporter gene activity was measured after 12 h of treatment with 1 nM TCDD or the indicated concentrations of 10-Cl-BBQ. D) Alteration in proteolytic pattern of AhR by 10-Cl-BBQ. Whole cell lysate (45 µg of protein) from mouse hepatoma Hepa1c1c7 cells was incubated with 100 nM 10-Cl-BBQ or 0.1% DMSO for 1 h at RT and proteolyzed by 1 µg/ml subtilisin for 1, 2, 4, and 8 min at RT. Proteolytic cleavage products of AhR were analyzed by immunoblot. E) Electrophoretic mobility shift assay showing the ligand-stimulated binding of AhR to XRE. Whole cell lysate (18 µg of protein) from mouse hepatoma Hepa1c1c7 cells was incubated with 10 nM 10-Cl-BBQ or 0.1% DMSO for 2 h at room temperature and ^32P-labeled oligonucleotide containing XRE for 20 min at room temperature. The samples were electrophoresed on a native polyacrylamide gel and the signal was visualized by Phosphor Imager. Unlabeled competitor XRE or antibody (Ab) against AhR or Arnt was co-incubated with ^32P-labeled oligonucleotide.
# The mean luciferase activity is shown with SEM. […] 3-MC binding to AhR.
# AhR [2] = tested on: AhR
# Description: The AhR reporter gene assay was performed as previously described (20–22).
# B) Hepa1 cells expressing endogenous AhR were transfected with a XRE-luciferase reporter gene. […] The mean luciferase activity is shown with SEM. C) Dose response curves for the competitive inhibition of [^3H] 3-MC binding to AhR.
# 3-methylcholanthrene (3-MC) to AhR (Fig. 5C).
# donor CD4+ T cells = assay: AhR-Treg phenotype of alloactivated donor CD4+ T cells 48 h after initiating the GVH response; format: in vivo, B6D2F1 host mice; settings: 10 mg/kg i.p. day 0 and day 1, analysed day 2, vs vehicle
# Description: Splenocytes and lymphocytes were harvested from C57Bl/6 mice. In some experiments, T cells were purified by negative selection using a Pan-T kit (Miltenyi Biotec) and stained with 2 µM carboxyfluorescein succinimidyl ester (CFSE) (Life Technologies). At least 2×10^7 purified T cells or approximately 1×10^8 pooled splenocytes and lymphocytes were injected i.v. into B6D2F1 host mice to initiate the GVH response. GVHD pathology was assessed on a scale of 0 to 3 (0 = normal, 1 = moderate morbidity, 2 = severe morbidity, 3 = death) according to the following five criteria: weight-loss, posture, activity, fur texture and death and reported as a Clinical GVHD Score.
# Host mice were treated daily with vehicle, 10-Cl-BBQ or BBQ analogues by i.p. injection. The vehicle consisted of a mixture of 6.7% anisole and peanut oil. Mice treated with a single i.p. dose of 15 µg TCDD/kg body weight in the same vehicle were used as positive controls.
# Antibodies to CTLA-4, Foxp3, ICOS, CD62L, CD25, CD19, CD44) and a fixable viability dye were purchased from eBiosciences. Additional antibody reagents included CD4 and CD8 (Life Technologies); H-2D^d (Biolegend) and CD45RB (PharMingen). After surface staining, the cells were fixed and permeabilized with Cytofix/cytoperm (BD Biosciences) for intracellular CTLA-4 stain. The flow cytometry data were acquired on an FC500 instrument (Beckman Coulter) and the data were analyzed using WinList 7.0 (Verity Software House). Fluorescence minus one (FMO) controls were used for setting histogram gates during the analysis.
# Figure 3 10-Cl-BBQ induces an AhR-dependent Treg phenotype 48 h after initiating the GVH response. On day 0, B6D2F1 host mice in groups of 5 were injected with CFSE-labeled C57Bl/6 T cells and given 15 mg/kg 10-Cl-BBQ, 15 µg/kg TCDD or vehicle by i.p. injection. At 24 h, an additional dose of 7 mg/kg 10-Cl-BBQ or vehicle was given. […] Treatment mean ± SEM is shown in the quadrant of interest. […] C) AhR-dependent induction of the donor Treg phenotype by 10-Cl-BBQ. On day 0, B6D2F1 host mice in groups of 5 were injected with donor T cells obtained from AhR^+/+ or AhR^−/− C57Bl/6 mice. Host mice were treated with 2 mg/kg10-Cl-BBQ or vehicle immediately following donor cell transfer and again at 24 hr. […] D) Dose-dependent induction of Treg phenotype by 10-Cl-BBQ. On day 0, B6D2F1 host mice in groups of 3–5 were injected with C57Bl/6 T cells. Mice were immediately treated with 0, 0.4, 2 or 10 mg/kg 10-Cl-BBQ and again on day 1. On day 2, expression of markers associated with the AhR-Treg phenotype increased as the dose of 10-Cl-BBQ increased. E) In the same mice as in D, lymph nodes were harvested and analyzed for expression of genes that were previously shown to increase under the same GVH conditions with TCDD treatment (13). […] Changes in gene expression were calculated relative to the β-actin gene, and the fold-induction was calculated by the ΔΔCt method using the vehicle-treated samples as a control. * = p<0.05 relative to vehicle treatment. […]
# CaMKK = tested on: CaMKK; design: method as in PMID 11867640; settings: cited from earlier work
# AhR [3] = tested on: AhR; design: method as in PMID 18755850; settings: MCF-7 cells and human macrophages; cited from earlier work
IC50 (AhR [2]),Compound,activation of AhR (AhR-regulated reporter gene activity) (AhR [1]),"percentage of alloresponsive donor CD4+ T cells expressing CD25 with AhR-Treg markers ICOS, CD62Llow and CTLA-4 (donor CD4+ T cells)",concentration known to fully inhibit CaMKK (CaMKK) [µM],concentration at which AhR activation occurred (AhR [3]) [µM]
13.7 nM,"O=c1c2cccc3cccc(c32)c2nc3ccccc3n12 [analogue 1, 7H-Benzimidazo[2,1-a]benzo[de]isoquinolin-7-one]",13 fold,significantly increased,–,–
5.2 nM,"O=c1c2ccc(Cl)c3cccc(c32)c2nc3cc(Cl)ccc3n12 [analogue 4, 4,11-Dichloro-7H-benzimidazo[2,1-a]benzo[de]isoquinolin-7-one]",19 fold,significantly increased,–,–
45200 nM and 45000 nM,"O=C(O)c1ccc2c3c1cccc3c(=O)n1c3ccccc3nc21 [analogue 5, 7-Oxo-7H-benzimidazo[2,1-a]benzo[de]isoquinoline-3-carboxylic acid, reference compound]",did not induce reporter activity,–,25,25

# Second part, the compound before the results:
Compound,IC50 (AhR [2]),activation of AhR (AhR-regulated reporter gene activity) (AhR [1]),"percentage of alloresponsive donor CD4+ T cells expressing CD25 with AhR-Treg markers ICOS, CD62Llow and CTLA-4 (donor CD4+ T cells)",concentration known to fully inhibit CaMKK (CaMKK) [µM],concentration at which AhR activation occurred (AhR [3]) [µM]
"11-Chloro-8H-benzimidazo[2,1-a]phenanthro[3,4,5-defg]isoquinolin-8-one [analogue 3]",–,2 fold,–,–,–
"Clc1cc2c(cc1Cl)Oc1cc(Cl)c(Cl)cc1O2 [TCDD, 2,3,7,8-tetrachlorodibenzo-p-dioxin, reference compound]",4.7 nM,–,–,–,–
"NN1C(=O)c2ccc3c(=O)n4c5ccc(Cl)cc5nc4c4ccc(c2c34)C1=O [analogue 2, 2-Amino-10-chlorobenzimidazo[2,1-b]benzo[lmn][3,8]phenanthroline-1,3,6(2H)-trione]",–,did not induce reporter activity,–,–,–
